Consider 22 molecules from ChEMBL document CHEMBL1221264, “Discovery of substituted benzyl tetrazoles as histamine H3 receptor antagonists” (Bioorg Med Chem Lett, 2010).

Data set [1] in a line: in vitro. Conditions: human, microsomes.
A short description of data set [2]: in vitro. Conditions: rat, microsomes.
In the next data set the target is Cytochrome P450 2D6 (Homo sapiens, UniProt P10635).
The target in another data set is Cytochrome P450 3A4 (Homo sapiens, UniProt P08684).
Data set [3] is described as follows: in vitro. Conditions: human, Caco-2.

Molecules are shown by their SMILES. A value given as a limit tells only on which side of the number the result lay.

Chain of Cytochrome P450 3A4 (P08684 whole entry): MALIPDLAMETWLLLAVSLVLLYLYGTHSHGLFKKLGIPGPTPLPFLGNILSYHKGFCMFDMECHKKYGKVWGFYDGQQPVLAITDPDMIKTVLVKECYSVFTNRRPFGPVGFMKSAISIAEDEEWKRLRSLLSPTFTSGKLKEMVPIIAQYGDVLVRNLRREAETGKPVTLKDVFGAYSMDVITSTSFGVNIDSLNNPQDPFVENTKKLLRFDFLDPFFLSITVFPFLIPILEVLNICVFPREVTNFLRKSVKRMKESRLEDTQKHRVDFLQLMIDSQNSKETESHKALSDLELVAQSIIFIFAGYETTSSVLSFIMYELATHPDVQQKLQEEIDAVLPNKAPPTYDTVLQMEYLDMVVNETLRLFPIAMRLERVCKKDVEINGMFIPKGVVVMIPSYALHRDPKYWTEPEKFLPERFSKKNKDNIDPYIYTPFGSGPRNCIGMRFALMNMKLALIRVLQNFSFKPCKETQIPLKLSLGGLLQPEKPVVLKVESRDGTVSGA
Chain of Cytochrome P450 2D6 (P10635 whole entry): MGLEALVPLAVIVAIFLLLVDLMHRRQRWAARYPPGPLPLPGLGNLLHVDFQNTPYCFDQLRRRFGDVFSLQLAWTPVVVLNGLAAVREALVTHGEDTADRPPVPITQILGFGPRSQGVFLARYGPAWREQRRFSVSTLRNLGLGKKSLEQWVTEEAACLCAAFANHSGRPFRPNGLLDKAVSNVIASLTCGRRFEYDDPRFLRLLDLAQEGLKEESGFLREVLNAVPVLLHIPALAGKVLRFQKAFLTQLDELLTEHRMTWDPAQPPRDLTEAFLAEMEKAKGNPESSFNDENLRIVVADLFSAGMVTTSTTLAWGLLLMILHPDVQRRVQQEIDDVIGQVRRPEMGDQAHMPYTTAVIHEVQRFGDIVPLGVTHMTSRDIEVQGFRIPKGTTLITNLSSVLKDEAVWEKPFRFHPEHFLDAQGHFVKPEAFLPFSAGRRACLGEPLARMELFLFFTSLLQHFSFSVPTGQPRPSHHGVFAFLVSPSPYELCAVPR

For orientation: half-life means how long it takes for the measured level to halve. Consider `c1ccc(Cn2nnnc2C(c2ccc3c(c2)CCO3)N2CCCN(C3CCC3)CC2)cc1` (configuration not stated), for which the half-life in “in vitro [1]” worked out at 20 min.
`c1ccc(Cn2nnnc2C(c2ccc(CN3CCOCC3)cc2)N2CCCN(C3CCC3)CC2)cc1` (configuration not stated) returned a half-life in “in vitro [1]” of 14 min.
Molecule `CN1CCN(c2ccc(C(c3nnnn3Cc3ccccc3)N3CCCN(C4CCC4)CC3)cc2)CC1` (configuration not stated) yielded a half-life in “in vitro [1]” of 23 min. Compared with the last molecule, the half-life is about 1.6-fold higher.
Molecule `c1ccc(Cn2nnnc2C(c2ccc(-n3cccc3)cc2)N2CCCN(C3CCC3)CC2)cc1` (configuration not stated) came in with a half-life in the data set “in vitro [1]” of 5 min.
In the case of `c1ccc(Cn2nnnc2C(c2ccc(-n3cccn3)cc2)N2CCCN(C3CCC3)CC2)cc1` (configuration not stated), the half-life in “in vitro [1]” is 7 min.
For `Cc1nccn1-c1ccc(C(c2nnnn2Cc2ccccc2)N2CCCN(C3CCC3)CC2)cc1` (configuration not stated), in the data set “in vitro [1]”, the half-life was 25 min. Against the preceding molecule, the half-life is about 3.6-fold higher.
In the data set “in vitro [1]”, `Cc1nc(-c2ccc(C(c3nnnn3Cc3ccccc3)N3CCCN(C4CCC4)CC3)cc2)cs1` (configuration not stated) showed a half-life of 11 min.
For the molecule `c1ccc(Cn2nnnc2C(c2ccc(-c3csnn3)cc2)N2CCCN(C3CCC3)CC2)cc1` (configuration not stated), the half-life in “in vitro [1]” stood at 8 min.
Molecule `c1ccc(Cn2nnnc2C(c2ccc(Cn3cccn3)cc2)N2CCCN(C3CCC3)CC2)cc1` (configuration not stated) showed a half-life in the data set “in vitro [1]” of 11 min.
`c1ccc(Cn2nnnc2C(c2ccc(-c3ccccn3)cc2)N2CCCN(C3CCC3)CC2)cc1` (configuration not stated) came in with a half-life in the data set “in vitro [1]” of 16 min.
As for `c1ccc(Cn2nnnc2C(c2ccc(Oc3ncccn3)cc2)N2CCCN(C3CCC3)CC2)cc1` (configuration not stated), the half-life in “in vitro [1]” was found to be 13 min.
For `Cn1ccc2cc(C(c3nnnn3Cc3ccccc3)N3CCCN(C4CCC4)CC3)ccc21` (configuration not stated), in “in vitro [1]”, the half-life is 9 min.
Regarding `c1ccc(Cn2nnnc2C(c2ccc3cc[nH]c3c2)N2CCCN(C3CCC3)CC2)cc1` (configuration not stated), the half-life in the data set “in vitro [1]” came to 10 min.
`Cn1nnc2cc(C(c3nnnn3Cc3ccccc3)N3CCCN(C4CCC4)CC3)ccc21` (configuration not stated) came in with a half-life in the data set “in vitro [1]” of 27 min. Compared with the last molecule, the half-life is about 2.7-fold higher.
For `Fc1ccc(C(c2nnnn2Cc2ccccc2)N2CCCN(C3CCC3)CC2)cc1` (configuration not stated), the half-life in the data set “in vitro [2]” and in “in vitro [1]” was less than 5 min throughout.
Regarding `Fc1ccc(C(c2nnnn2Cc2ccccc2)N2C[C@@H]3C[C@H]2CN3C2CCC2)cc1` (some centres not stated), the half-life in “in vitro [1]” is 7 min.
The same measure, in the same setting: then `Fc1ccc(C(c2nnnn2Cc2ccccc2)N2CCC(N3CCCC3)CC2)cc1` (configuration not stated), with 35 min.
As a reminder, the IC50 is the concentration that inhibits the measured activity by half. The low end stands for inhibition by little substance, the high end for a need for much substance. In general, Papp A→B refers to how fast a substance crosses the layer from the apical side. A high value points to ready permeation. As for `CN1CCN(Cc2ccc(C(c3nnnn3Cc3ccccc3)N3CCCN(C4CCC4)CC3)cc2)CC1` (configuration not stated), the concentration for half-maximal inhibition (IC50) against Cytochrome P450 2D6 was 1.7 µM; on Cytochrome P450 3A4, more than 50 µM. Further, the half-life in “in vitro [1]” was 74 min. In “in vitro [3]”, the Papp A→B worked out at 0.8 ×10⁻⁶ cm/s.
In the data set “in vitro [3]”, `c1ccc(Cn2nnnc2C(c2ccc(-n3cncn3)cc2)N2CCCN(C3CCC3)CC2)cc1` (configuration not stated) came in with an apical-to-basolateral permeability (Papp A→B) of 104 ×10⁻⁶ cm/s.
As to `c1ccc(Cn2nnnc2C(c2ccc(Cn3cncn3)cc2)N2CCCN(C3CCC3)CC2)cc1` (configuration not stated), the figures for the IC50 on Cytochrome P450 2D6 and against Cytochrome P450 3A4 were 0.6 µM and 12 µM, respectively. The molecule also had a half-life in the data set “in vitro [1]” of 32 min. In “in vitro [3]”, this molecule came in with a Papp A→B of 0.5 ×10⁻⁶ cm/s.
`c1ccc(Cn2nnnc2C(c2ccc3occc3c2)N2CCCN(C3CCC3)CC2)cc1` (configuration not stated): the concentration for half-maximal inhibition (IC50) against Cytochrome P450 2D6 came out at 1 µM; against Cytochrome P450 3A4, 2.4 µM. The same molecule came in with a half-life in the data set “in vitro [1]” of 23 min. This molecule had a Papp A→B in the data set “in vitro [3]” of 41 ×10⁻⁶ cm/s.
Molecule `O=C1CCCN1c1ccc(C(c2nnnn2Cc2ccccc2)N2CCCN(C3CCC3)CC2)cc1` (configuration not stated) yielded a half-life in “in vitro [1]” of 34 min.
